Assay results as given in patent US20250136578A1 (Kolm Therapeutics Inc., priority 2023, published 2025).

Columns and labels:
Type in all cases: cell-based
HEK-293 cells = assay: HEK-293 growth inhibition assay (CTG); settings: Homo sapiens, HEK293, 72 h, 3 days
Description: HEK-293 cells (ATCC Cat #CRL-1573) are plated at 3×10^3 cells per well of a white plastic 96-well cluster plate (Thermo Scientific Nunc Cat #165306) in 200 uL DMEM (ATCC Cat #30-2002) media with 10% FBS (Gibco Cat #26140-079). Cluster plates are returned to the incubator (37*C/5% CO2) for 24 hours prior to treatment. Compounds (200X) were added to each well in a volume of 1 uL, with serial dilutions (1:5) from 2 mM to 200 pM (final concentrations in well are 10 uM to 1 pM). Cluster plates are returned to the incubator for 3 days.
After the 3-day treatment period, 100 uL media was removed from each well by aspiration and 100 uL room temperature CTG reagent (Promega Cat #G7573) is added back to each well. The cluster plates are placed on a shaker and incubated at room temperature for 20 minutes. Following this shaking/incubation, cluster plates are read on a luminometer (BMG ClarioStar). IC50 values are obtained by graphing the RLU data vs. compound concentration with nonlinear regression 4-parameter logistic curves (GraphPad Prism).

VCaP cells = assay: VCaP growth inhibition assay (CTG); settings: Homo sapiens, 216 h, 30 pM R1881, 9 days
Method in brief: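 VCaP cells in phenol red-free DMEM with 5% charcoal-stripped serum were stimulated with 30 pM R1881 (final) and treated with compound from 100 nM to 10 fM final (1:5 dilutions) for 9 days at 37 °C. Viability was read by CellTiter-Glo luminescence, and IC50 came from 4-parameter logistic fits.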

AR / CBP ternary complex = AR / CBP ternary complex (Homo sapiens, UniProt P10275+Q92793); assay: Ternary complex formation assay (sandwich ELISA, AR capture, CBP antibody detection) in VCaP cell lysates; settings: treated 1.5 hours, rabbit CBP or p300 antibody detection, average, read-out: Average Ternary Complex
Sequence of AR / CBP ternary complex (P10275 whole entry): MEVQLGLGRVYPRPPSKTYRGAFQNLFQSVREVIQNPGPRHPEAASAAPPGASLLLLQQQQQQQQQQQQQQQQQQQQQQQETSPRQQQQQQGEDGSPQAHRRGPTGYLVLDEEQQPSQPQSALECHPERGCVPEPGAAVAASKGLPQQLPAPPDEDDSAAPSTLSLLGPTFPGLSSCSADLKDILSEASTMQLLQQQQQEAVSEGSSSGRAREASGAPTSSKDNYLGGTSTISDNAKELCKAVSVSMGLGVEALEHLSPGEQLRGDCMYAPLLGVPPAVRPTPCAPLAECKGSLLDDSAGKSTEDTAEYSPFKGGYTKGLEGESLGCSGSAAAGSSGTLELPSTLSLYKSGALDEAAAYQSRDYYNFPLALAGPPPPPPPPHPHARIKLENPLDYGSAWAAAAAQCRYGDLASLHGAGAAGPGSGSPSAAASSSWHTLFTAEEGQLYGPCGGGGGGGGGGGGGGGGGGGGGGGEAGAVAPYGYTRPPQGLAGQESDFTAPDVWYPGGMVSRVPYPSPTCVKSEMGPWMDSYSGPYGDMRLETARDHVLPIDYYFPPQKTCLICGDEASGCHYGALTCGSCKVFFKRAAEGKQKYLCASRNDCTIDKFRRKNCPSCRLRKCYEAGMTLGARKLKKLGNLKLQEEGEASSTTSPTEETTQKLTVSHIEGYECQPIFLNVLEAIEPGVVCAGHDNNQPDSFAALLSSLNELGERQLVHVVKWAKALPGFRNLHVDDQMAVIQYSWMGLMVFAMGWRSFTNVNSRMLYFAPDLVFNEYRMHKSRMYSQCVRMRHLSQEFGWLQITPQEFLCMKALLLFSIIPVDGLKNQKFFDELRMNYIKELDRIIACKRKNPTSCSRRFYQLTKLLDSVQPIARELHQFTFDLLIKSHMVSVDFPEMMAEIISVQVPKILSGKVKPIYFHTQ
Sequence of AR / CBP ternary complex (Q92793 2-2442): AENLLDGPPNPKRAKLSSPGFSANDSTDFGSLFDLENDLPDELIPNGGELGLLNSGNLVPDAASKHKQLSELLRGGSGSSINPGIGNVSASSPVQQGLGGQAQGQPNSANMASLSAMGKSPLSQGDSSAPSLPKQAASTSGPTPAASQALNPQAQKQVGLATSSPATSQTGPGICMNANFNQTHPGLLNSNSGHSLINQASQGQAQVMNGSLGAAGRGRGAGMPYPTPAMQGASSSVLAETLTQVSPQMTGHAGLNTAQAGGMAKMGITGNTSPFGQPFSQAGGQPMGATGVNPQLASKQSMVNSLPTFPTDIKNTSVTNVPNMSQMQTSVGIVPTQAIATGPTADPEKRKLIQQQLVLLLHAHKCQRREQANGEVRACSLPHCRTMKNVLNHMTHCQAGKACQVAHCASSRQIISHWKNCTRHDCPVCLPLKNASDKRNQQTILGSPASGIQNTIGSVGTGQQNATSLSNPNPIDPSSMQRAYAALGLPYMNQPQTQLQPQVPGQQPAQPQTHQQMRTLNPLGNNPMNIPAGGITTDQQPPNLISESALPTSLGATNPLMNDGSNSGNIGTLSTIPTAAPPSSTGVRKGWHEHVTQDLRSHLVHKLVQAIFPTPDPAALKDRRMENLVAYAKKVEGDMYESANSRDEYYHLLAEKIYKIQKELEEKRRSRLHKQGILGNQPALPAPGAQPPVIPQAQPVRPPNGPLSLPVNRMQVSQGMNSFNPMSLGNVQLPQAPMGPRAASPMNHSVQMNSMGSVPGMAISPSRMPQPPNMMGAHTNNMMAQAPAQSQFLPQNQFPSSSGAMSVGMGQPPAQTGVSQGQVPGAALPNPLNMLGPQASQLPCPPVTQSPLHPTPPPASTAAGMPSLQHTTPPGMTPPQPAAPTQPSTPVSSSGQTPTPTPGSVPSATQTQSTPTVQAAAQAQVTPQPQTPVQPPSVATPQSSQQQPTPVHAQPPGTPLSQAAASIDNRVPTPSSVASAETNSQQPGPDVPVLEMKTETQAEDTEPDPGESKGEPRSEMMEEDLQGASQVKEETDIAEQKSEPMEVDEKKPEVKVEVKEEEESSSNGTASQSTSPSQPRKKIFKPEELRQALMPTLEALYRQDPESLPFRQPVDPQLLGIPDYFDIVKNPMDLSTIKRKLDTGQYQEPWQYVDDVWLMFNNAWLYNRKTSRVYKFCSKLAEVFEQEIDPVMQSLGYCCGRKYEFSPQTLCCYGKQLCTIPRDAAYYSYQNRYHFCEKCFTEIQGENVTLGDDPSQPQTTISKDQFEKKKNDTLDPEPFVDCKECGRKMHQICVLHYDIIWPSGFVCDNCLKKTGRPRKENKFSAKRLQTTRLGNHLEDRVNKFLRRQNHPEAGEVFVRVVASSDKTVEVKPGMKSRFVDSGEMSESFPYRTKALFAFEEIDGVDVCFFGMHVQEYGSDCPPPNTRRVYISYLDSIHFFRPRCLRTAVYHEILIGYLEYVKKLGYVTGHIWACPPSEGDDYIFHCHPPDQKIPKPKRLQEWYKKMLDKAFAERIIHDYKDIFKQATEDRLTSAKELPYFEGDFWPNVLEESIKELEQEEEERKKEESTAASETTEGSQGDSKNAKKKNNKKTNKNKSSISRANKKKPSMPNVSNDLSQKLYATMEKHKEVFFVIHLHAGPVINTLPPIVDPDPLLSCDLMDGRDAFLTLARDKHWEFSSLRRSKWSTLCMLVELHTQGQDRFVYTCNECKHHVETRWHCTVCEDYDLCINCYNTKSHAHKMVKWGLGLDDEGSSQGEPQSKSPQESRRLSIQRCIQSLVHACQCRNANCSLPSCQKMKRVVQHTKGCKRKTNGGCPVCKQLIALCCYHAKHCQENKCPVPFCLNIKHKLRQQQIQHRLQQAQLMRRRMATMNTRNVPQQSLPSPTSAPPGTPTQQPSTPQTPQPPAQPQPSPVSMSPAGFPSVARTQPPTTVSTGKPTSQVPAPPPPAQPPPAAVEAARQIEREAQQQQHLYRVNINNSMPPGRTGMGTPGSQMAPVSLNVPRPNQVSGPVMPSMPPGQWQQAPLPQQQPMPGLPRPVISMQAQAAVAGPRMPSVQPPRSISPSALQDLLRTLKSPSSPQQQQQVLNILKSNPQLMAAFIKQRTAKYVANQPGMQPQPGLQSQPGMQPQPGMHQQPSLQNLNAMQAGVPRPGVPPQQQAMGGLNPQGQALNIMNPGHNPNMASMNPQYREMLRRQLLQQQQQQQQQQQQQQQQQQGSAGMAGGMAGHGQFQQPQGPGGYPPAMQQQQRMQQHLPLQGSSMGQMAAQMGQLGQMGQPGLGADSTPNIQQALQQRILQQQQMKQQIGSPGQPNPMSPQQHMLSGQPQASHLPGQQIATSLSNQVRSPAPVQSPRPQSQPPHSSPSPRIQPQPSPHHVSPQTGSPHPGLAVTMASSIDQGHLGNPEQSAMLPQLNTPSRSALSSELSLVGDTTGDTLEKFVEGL
Method in brief: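 VCaP cells in 5% charcoal-stripped FBS were cultured ≥3 days and then given bifunctional compound for 1.5 h. Lysates went onto AR-antibody-coated plates. Bound CBP (or p300) was detected with a rabbit antibody plus HRP anti-rabbit, using QuantaRed chemifluorescence (ex 570/em 585) read immediately, at 5 min and at 15 min.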

Row | SMILES | IC50 (VCaP cells) | EC50 (AR / CBP ternary complex) | IC50 (HEK-293 cells)
1 | CC(=O)N1CCc2c(c(N3CCCc4cc(-c5cnn(C)c5)c(C(F)F)cc43)nn2C2CCN(C(=O)COC3CCN(c4ccc(C(=O)N[C@H]5CC[C@H](Oc6ccc(C#N)c(Cl)c6)CC5)nn4)CC3)CC2)C1 [Compound 1, 6-[4-[2-[4-[5-acetyl-3-[7-(difluoromethyl)-6-(1-methylpyrazol-4-yl)-3,4-dihydro-2H-quinolin-1-yl]-6,7-dihydro-4H-pyrazolo[4,3-c]pyridin-1-yl]-1-piperidyl]-2-oxo-ethoxy]-1-piperidyl]-N-[4-(3-chloro-4-cyano-phenoxy)cyclohexyl]pyridazine-3-carboxamide] | ≤ 0.1 nM | < 1 nM | > 10 µM
2 | CC(=O)N1CCc2c(c(-c3cccc4cc(-c5ccc(COCC6CCN(c7ccc(C(=O)N[C@H]8CC[C@H](Oc9ccc(C#N)c(Cl)c9)CC8)nn7)CC6)nc5)ncc34)nn2C)C1 [Compound 21, 6-[4-[[5-[8-(5-acetyl-1-methyl-6,7-dihydro-4H-pyrazolo[4,3-c]pyridin-3-yl)-3-isoquinolyl]-2-pyridyl]methoxymethyl]-1-piperidyl]-N-[4-(3-chloro-4-cyano-phenoxy)cyclohexyl]pyridazine-3-carboxamide] | ≤ 0.1 nM | < 1 nM | 
3 | C[C@@H]1CC(=O)Nc2cccc(N3CCCc4cc(-c5cnn(CCC6CCN(c7ccc(C(=O)N[C@H]8CC[C@H](Oc9ccc(C#N)c(Cl)c9)CC8)nn7)CC6)c5)c(C(F)F)cc43)c2N1 [Compound 36, N-[4-(3-chloro-4-cyano-phenoxy)cyclohexyl]-6-[4-[2-[4-[7-(difluoromethyl)-1-[(4R)-4-methyl-2-oxo-1,3,4,5-tetrahydro-1,5-benzodiazepin-6-yl]-3,4-dihydro-2H-quinolin-6-yl]pyrazol-1-yl]ethyl]-1-piperidyl]pyridazine-3-carboxamide] | 1 to 100 nM | 10 to 100 nM | 
4 | CC(=O)N1CCc2c(c(-c3cccc4cc(-c5cnn(CCC6CCN(c7ccc(C(=O)N[C@H]8CC[C@H](Oc9ccc(C#N)c(Cl)c9)CC8)nn7)CC6)c5)ncc34)nn2[C@H]2CCOC2)C1 [Compound 85, 6-[4-[2-[4-[8-[5-acetyl-1-[(3S)-tetrahydrofuran-3-yl]-6,7-dihydro-4H-pyrazolo[4,3-c]pyridin-3-yl]-3-isoquinolyl]pyrazol-1-yl]ethyl]-1-piperidyl]-N-[4-(3-chloro-4-cyano-phenoxy)cyclohexyl] pyridazine-3-carboxamide] | ≤ 0.1 nM | < 1 nM | 

The next lines start with results.

Row | IC50 (VCaP cells) | EC50 (AR / CBP ternary complex) | SMILES | IC50 (HEK-293 cells)
5 | ≤ 0.1 nM | < 1 nM | CC(=O)N1CCc2c(c(N3CCCc4cc(-c5cnn(C)c5)c(C(F)F)cc43)nn2C2CCN(C3CN(c4ccc(C(=O)N[C@H]5CC[C@H](Oc6ccc(C#N)c(Cl)c6)CC5)nn4)C3)CC2)C1 [Compound 206, 6-[3-[4-[5-acetyl-3-[7-(difluoromethyl)-6-(1-methylpyrazol-4-yl)-3,4-dihydro-2H-quinolin-1-yl]-6,7-dihydro-4H-pyrazolo[4,3-c]pyridin-1-yl]-1-piperidyl]azetidin-1-yl]-N-[4-(3-chloro-4-cyano-phenoxy)cyclohexyl]pyridazine-3-carboxamide] | 
6 | 0.1 to 1 nM | < 1 nM | CC(=O)N1CCc2c(c(-c3cccc4ccncc34)nn2C2CCN(CC3CCN(c4ccc(C(=O)N[C@H]5CC[C@H](Oc6ccc(C#N)c(Cl)c6)CC5)nn4)CC3)CC2)C1 [Compound 120, 6-[4-[[4-[5-acetyl-3-(8-isoquinolyl)-6,7-dihydro-4H-pyrazolo[4,3-c]pyridin-1-yl]-1-piperidyl]methyl]-1-piperidyl]-N-[4-(3-chloro-4-cyano-phenoxy)cyclohexyl]pyridazine-3-carboxamide] | 
7 | ≤ 0.1 nM | < 1 nM | COc1cc(O[C@H]2CC[C@H](NC(=O)c3ccc(N4CCC(CN5CCC(n6nc(-c7cccc8cc(-c9cnn(C)c9)ncc78)c7c6CCN(C(C)=O)C7)CC5)CC4)cc3)CC2)ccc1C#N [Compound 163, 4-[4-[[4-[5-acetyl-3-[3-(1-methylpyrazol-4-yl)-8-isoquinolyl]-6,7-dihydro-4H-pyrazolo[4,3-c]pyridin-1-yl]-1-piperidyl]methyl]-1-piperidyl]-N-[4-(4-cyano-3-methoxy-phenoxy)cyclohexyl]benzamide] | 
8 | 1 to 100 nM | 1 to 10 nM | CC(=O)N1CCc2c(c(N3CCCc4cc(-c5cnn(C)c5)c(C(F)F)cc43)nn2C2CCN([C@H]3CCCN(c4ccc(C(=O)N[C@H]5CC[C@H](Oc6ccc(C#N)c(Cl)c6)CC5)nn4)C3)CC2)C1 [Compound 258, 6-[(3S)-3-[4-[5-acetyl-3-[7-(difluoromethyl)-6-(1-methylpyrazol-4-yl)-3,4-dihydro-2H-quinolin-1-yl]-6,7-dihydro-4H-pyrazolo[4,3-c]pyridin-1-yl]-1-piperidyl]-1-piperidyl]-N-[4-(3-chloro-4-cyano-phenoxy)cyclohexyl]pyridazine-3-carboxamide] | 
